Data as given in patent US9271978B2 (Zenith Epigenetics Corp., priority 2012, dated 2016).

Legend:
[1] = target: T1, second bromodomain of Brd2 (BRD2(2)) (Homo sapiens, UniProt P25440); experiment: Inhibition of tetra-acetylated histone H4 binding to Brd2 bromodomain 2 (TR-FRET); design: key: Active: Compounds with an IC50 value less than 30 μM were deemed to be active.; Not Active: Compounds with an IC50 value less than 30 μM were deemed to be active; settings: tetra-acetylated histone H4 peptide, active = IC50 <30 μM
T1 construct: made in house; host or cells: E. coli BL21 (DE3)
T1 sequence (P25440 344-453 limits assumed): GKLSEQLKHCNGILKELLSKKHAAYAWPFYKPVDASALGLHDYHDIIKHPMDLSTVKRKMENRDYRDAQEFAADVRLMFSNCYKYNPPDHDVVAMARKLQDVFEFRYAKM
Summary of the method: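 N-terminally His-tagged bromodomains (200 nM), expressed in E. coli, were incubated with biotinylated tetra-acetylated histone H4 peptide (25-50 nM), Eu-cryptate streptavidin and XL665 anti-His antibody in HEPES pH 7.4 buffer with KF, 0.2% DMSO, 2 h at room temperature. Inhibition read as decreased 665/620 nm TR-FRET; IC50 from dose-response curves.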

[2] = test system: IL-6 and IL-17 cytokines; experiment: In vivo efficacy in mouse endotoxemia model; settings: C57/B16 mice, oral 75 mg/kg, inhibition in IL-6 and IL-17 post 4-h LPS challenge 0.5 mg/kg i.p.
Method: Sub lethal doses of Endotoxin (E. Coli bacterial lipopolysaccharide) were administered to animals to produce a generalized inflammatory response which was monitored by increases in secreted cytokines. Compounds were administered to C57/B16 mice orally at 75 mg/kg dose to evaluate inhibition in IL-6 and IL-17 cytokines post 4-h challenge with lipopolysaccharide (LPS) at 0.5 mg/kg dose intraperitoneally.

[3] = test system: Rat collagen-induced arthritis; experiment: In vivo efficacy in rat collagen-induced arthritis; settings: female Lewis rats, dosed Day 11 to Day 17
Method: Rat collagen-induced arthritis is an experimental model of polyarthritis that has been widely used for preclinical testing of numerous anti-arthritic agents. Following administration of collagen, this model establishes a measurable polyarticular inflammation, marked cartilage destruction in association with pannus formation and mild to moderate bone resorption and periosteal bone proliferation. In this model, collagen was administered to female Lewis strain of rats on Day 1 and 7 of study and dosed with compounds from Day 11 to Day 17. Test compounds were evaluated to assess the potential to inhibit the inflammation (including paw swelling), cartilage destruction and bone resorption in arthritic rats, using a model in which the treatment is administered after the disease has been established.

Row | Structure (SMILES) | FRET activity (IC50 <30 μM) BRD2(2) [1] | In vivo activity [2] | In vivo activity [3]
1 | Cc1noc(C)c1-c1ccc(=O)n([C@H](C)c2ccccc2)c1 [Example 134, (R)-5-(3,5-Dimethylisoxazol-4-yl)-1-(1-phenylethyl)pyridin-2(1H)-one] | Active | – | –
2 | Cc1noc(C)c1-c1ccc(=O)n(Cc2ccccc2)c1 [Example 56, 1-Benzyl-5-(3,5-dimethylisoxazol-4-yl)pyridin-2(1H)-one] | Active | Active | –
3 | Cc1noc(C)c1-c1ccc(=O)n(Cc2ccc(Cl)cc2)c1 [Example 128, 1-(4-Chlorobenzyl)-5-(3,5-dimethylisoxazol-4-yl)pyridin-2(1H)-one] | Active | Active | Active
4 | Cc1noc(C)c1-c1cc(N)c(=O)n(Cc2ccccc2)c1 [Example 73, 3-Amino-1-benzyl-5-(3,5-dimethylisoxazol-4-yl)pyridin-2(1H)-one] | Active | – | –
